According to patent US11160871B2, “SSTR-targeted conjugates and particles and formulations thereof” (TARVEDA THERAPEUTICS, INC., priority 2015, dated 2021):
Read-outs that look alike come from different tables or passages of the source.

Tests used:
SSTR1 = SSTR1 (Homo sapiens, UniProt P30872); assay: Radioligand-receptor binding assay, same method; conditions: read-out: Conjugate 57 Ki
Method: (§1) Two conjugates were assessed in an in vitro assay evaluating binding to the somatostatin receptor 2 (SSTR2). A radioligand-receptor binding assay was conducted at Eurofins Panlabs (Taiwan) to determine the affinity of conjugates described herein to the SSTR2. The assay measures binding of radiolabeled ligand, [^125I] labeled somatostatin, to human SSTR2 using membrane preparations from SSTR2 expressing CHO-K1 cells. Membranes were incubated with radiolabeled somatostatin (0.03 nM) in the presence of conjugate/compound starting at a dose of 10 uM using 6× serial dilutions to obtain a 10-pt curve. After a four hour incubation, membranes were filtered and washed 3× and counted to determine the remaining[^125 I] somatostatin bound to the receptor. IC50 values were determined by a non-linear, least squares regression analysis using MathIQ™ (ID Business Solutions Ltd., UK). The Ki values were calculated using the equation of Cheng and Prusoff (Cheng and Prusoff, Biochem. Pharmacol. 22:3099-3108, 1973) using the observed IC50 of the tested conjugate/compound, the concentration of radioligand employed in the assay, and the historical values for the KD of the ligand obtained at Eurofins.
(§2) In another study, the binding of Conjugate 57 to the five SSTRs was measured with the same method. Conjugate 57 binds selectively and with high affinity to SSTR2.

SSTR3 = SSTR3 (Homo sapiens, UniProt P32745); assay: Radioligand-receptor binding assay, same method; conditions: read-out: Conjugate 57 Ki
SSTR3, sequence (P32745 whole entry): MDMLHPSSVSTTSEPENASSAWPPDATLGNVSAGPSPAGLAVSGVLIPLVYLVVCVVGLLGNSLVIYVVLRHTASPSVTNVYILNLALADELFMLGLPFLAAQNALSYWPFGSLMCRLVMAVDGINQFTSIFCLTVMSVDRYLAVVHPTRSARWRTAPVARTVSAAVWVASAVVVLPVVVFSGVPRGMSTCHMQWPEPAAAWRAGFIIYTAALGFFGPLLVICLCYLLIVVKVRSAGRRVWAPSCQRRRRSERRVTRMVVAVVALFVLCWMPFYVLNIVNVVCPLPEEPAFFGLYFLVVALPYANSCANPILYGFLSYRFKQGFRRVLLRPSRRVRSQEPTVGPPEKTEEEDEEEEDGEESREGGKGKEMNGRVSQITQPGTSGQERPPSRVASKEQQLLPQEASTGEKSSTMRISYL
Method: as §1, §2

SSTR4 = SSTR4 (Homo sapiens, UniProt P31391); assay: Radioligand-receptor binding assay, same method; conditions: read-out: Conjugate 57 Ki
SSTR4, sequence (P31391 whole entry): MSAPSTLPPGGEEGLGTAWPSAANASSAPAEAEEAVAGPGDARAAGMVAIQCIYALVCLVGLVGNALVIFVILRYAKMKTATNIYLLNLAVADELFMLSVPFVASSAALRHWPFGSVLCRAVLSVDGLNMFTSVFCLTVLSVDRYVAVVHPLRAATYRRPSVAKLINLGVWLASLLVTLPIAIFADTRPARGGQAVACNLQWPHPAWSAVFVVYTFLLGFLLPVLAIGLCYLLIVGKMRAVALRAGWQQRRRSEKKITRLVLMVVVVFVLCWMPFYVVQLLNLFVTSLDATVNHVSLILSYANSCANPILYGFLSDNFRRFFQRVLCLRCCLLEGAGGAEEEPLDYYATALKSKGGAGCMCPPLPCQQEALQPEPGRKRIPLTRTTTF
Method: as §1, §2

SSTR5 = SSTR5 (Homo sapiens, UniProt P35346); assay: Radioligand-receptor binding assay, same method; conditions: read-out: Conjugate 57 Ki
SSTR5, sequence (P35346 whole entry): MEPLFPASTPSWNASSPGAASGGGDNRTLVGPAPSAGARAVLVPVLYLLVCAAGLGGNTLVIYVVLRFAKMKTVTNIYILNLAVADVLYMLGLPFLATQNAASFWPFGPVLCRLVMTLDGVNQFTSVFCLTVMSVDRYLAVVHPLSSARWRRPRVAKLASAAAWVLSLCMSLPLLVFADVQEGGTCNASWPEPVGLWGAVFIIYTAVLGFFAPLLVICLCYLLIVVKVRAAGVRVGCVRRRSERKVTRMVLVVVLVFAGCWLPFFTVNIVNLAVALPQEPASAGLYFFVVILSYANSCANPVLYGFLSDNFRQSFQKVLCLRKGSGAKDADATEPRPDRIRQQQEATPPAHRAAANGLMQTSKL
Method: as §1, §2

NCI-H524 cells = assay: PH3 assay of cell-cycle arrest; format: cell-based, human
From the text: Results of a PH3 assay measuring effect on cell-cycle arrest that looks at phospho histone H3 (PH3) increases were shown in FIG. 2B.

[1] = system: NIC-H524 tumor xenograft model (SSTR2 expressing); assay: Dose response study in NIC-H524 tumor xenograft model; format: in vivo
Method: A dose response study was carried out in NIC-H524 tumor xenograft model (SSTR2 expressing) with a single dose of Conjugate 57. Doses evaluated were 0.5 mg/kg, 1.0 mg/kg, and 2.0 mg/kg.

Plasma protein binding = format: in vitro ADME; conditions: for fraction unbound at 1 uM: read-out: Free fraction at 1 uM (%); for fraction unbound at 10 uM: read-out: Free fraction at 10 uM (%)
From the text: Plasma protein binding is not concentration dependent and is consistent across species.

HCC-33 (SCLC) xenografts = assay: HCC-33 (SCLC) xenografts, tumor growth inhibition (Example 13); format: in vivo; conditions: for TGI % Day 5 / TGI % Day 8 / TGI % Day 12 / TGI % Day 16 / TGI % Day 20 / TGI % Day 23 / TGI % Day 27 / TGI % Day 30: dosed on Day 1 and Day 8
Method: The efficacy of Conjugate 57 was studied with HCC-33 (SCLC) xenografts. Conjugate 57 was dosed on Day 1 and Day 8.

[2] = system: HCC-33 (small cell lung cancer) xenograft; assay: HCC-33 xenograft, multiple dose regimens (Example 17); format: in vivo
Method: HCC-33 (small cell lung cancer) xenograft was chosen to study efficacy of Conjugate 57. In some groups, Conjugate 57 was given at 1.0 mg/kg, 0.5 mg/kg or 0.33 mg/kg every week for 30 days, a total of four doses for each animal. In some other groups, Conjugate 57 was also given at 0.5 mg/kg or 0.25 mg/kg twice a week for 30 days, a total of 8 total doses for each animal.

passage 3 IMR-32 tumors = assay: IMR-32 tumor model; format: in vivo, mice
Method: Further, mice bearing passage 3 IMR-32 tumors were dosed with Conjugate 57 either at 2.0 mg/kg or 1.5 mg/kg once a week for two weeks with a vehicle negative control. […] The 1.5 mpk group only lost an average of 2.0%. All mice recovered once dosing was complete.

[3] = single dose 0.5, 1.0 and 2.0 mg/kg
[4] = both groups (2 mg/kg and 1 mg/kg)
[5] = 0.25 mg/kg 2x/wk, 8 total doses
[6] = 0.33 mg/kg every week, four doses
[7] = 0.5 mg/kg every week, four doses
[8] = 1.0 mg/kg every week, four doses

SSTR1, sequence (P30872 whole entry): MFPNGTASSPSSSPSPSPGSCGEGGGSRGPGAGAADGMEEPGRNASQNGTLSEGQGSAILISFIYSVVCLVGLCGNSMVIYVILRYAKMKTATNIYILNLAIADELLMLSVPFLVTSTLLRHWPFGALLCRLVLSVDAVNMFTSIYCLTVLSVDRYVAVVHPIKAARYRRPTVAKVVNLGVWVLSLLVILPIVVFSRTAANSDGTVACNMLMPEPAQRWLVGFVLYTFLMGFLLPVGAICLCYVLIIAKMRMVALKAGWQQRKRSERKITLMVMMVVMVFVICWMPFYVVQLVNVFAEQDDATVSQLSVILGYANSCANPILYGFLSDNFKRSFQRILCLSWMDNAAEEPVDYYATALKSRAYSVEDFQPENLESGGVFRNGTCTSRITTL

SMILES: COc1cc2cc(c1Cl)N(C)C(=O)C[C@H](OC(=O)[C@H](C)N(C)C(=O)CCSSC[C@H](NC(=O)[C@@H]1CSSC[C@H](NC(=O)[C@H](N)Cc3ccccc3)C(=O)N[C@@H](Cc3ccc(O)cc3)C(=O)N[C@H](Cc3c[nH]c4ccccc34)C(=O)N[C@@H](CCCCN)C(=O)N[C@@H]([C@@H](C)O)C(=O)N1)C(N)=O)[C@]1(C)O[C@H]1[C@H](C)[C@@H]1C[C@@](O)(NC(=O)O1)[C@H](OC)/C=C/C=C(\C)C2 [Conjugate 57]
- Ki (SSTR1): 310 nM
- Ki (SSTR3): 19.8 nM
- Ki (SSTR4): 5480 nM
- Ki (SSTR5): 9.6 nM
- shift in PH3 assay on competition with octreotide (NCI-H524 cells): 2.6 fold
- dose response (tumor volume) [1, 3]: clear dose response
- tolerability (body weight change) [1, 3]: all doses are well-tolerated
- tumor response (tumor volume) ([1]; single dose of 2 mg/kg): significant regression
- fraction unbound at 1 uM (Plasma protein binding; Dog plasma): 0.044
- fraction unbound at 10 uM (Plasma protein binding; Dog plasma): 0.033
- fraction unbound at 1 uM (Plasma protein binding; Human plasma): 0.078
- fraction unbound at 10 uM (Plasma protein binding; Human plasma): 0.078
- fraction unbound at 1 uM (Plasma protein binding; Mouse plasma): 0.082
- fraction unbound at 10 uM (Plasma protein binding; Mouse plasma): 0.094
- fraction unbound at 1 uM (Plasma protein binding; Rat plasma): 0.063
- fraction unbound at 10 uM (Plasma protein binding; Rat plasma): 0.074
- TGI % Day 5 (HCC-33 (SCLC) xenografts; 1 mg/kg): 46.2%
- TGI % Day 8 (HCC-33 (SCLC) xenografts; 1 mg/kg): 71.3%
- TGI % Day 12 (HCC-33 (SCLC) xenografts; 1 mg/kg): 87.2%
- TGI % Day 16 (HCC-33 (SCLC) xenografts; 1 mg/kg): 96.3%
- TGI % Day 20 (HCC-33 (SCLC) xenografts; 1 mg/kg): 98.1%
- TGI % Day 23 (HCC-33 (SCLC) xenografts; 1 mg/kg): 99.2%
- TGI % Day 27 (HCC-33 (SCLC) xenografts; 1 mg/kg): 99.6%
- TGI % Day 30 (HCC-33 (SCLC) xenografts; 1 mg/kg): 99.6%
- TGI % Day 5 (HCC-33 (SCLC) xenografts; 2 mg/kg): 47%
- TGI % Day 8 (HCC-33 (SCLC) xenografts; 2 mg/kg): 74.8%
- TGI % Day 12 (HCC-33 (SCLC) xenografts; 2 mg/kg): 88.2%
- TGI % Day 16 (HCC-33 (SCLC) xenografts; 2 mg/kg): 96.2%
- TGI % Day 20 (HCC-33 (SCLC) xenografts; 2 mg/kg): 98.3%
- TGI % Day 23 (HCC-33 (SCLC) xenografts; 2 mg/kg): 99.1%
- TGI % Day 27 (HCC-33 (SCLC) xenografts; 2 mg/kg): 99.5%
- TGI % Day 30 (HCC-33 (SCLC) xenografts; 2 mg/kg): 99.9%
- Body weights (HCC-33 (SCLC) xenografts; [4]): increased
- Tumor regression (HCC-33 (SCLC) xenografts; [4]): ~100%
- TGI % Day 4 [2, 5]: −12.5%
- TGI % Day 8 [2, 5]: 50.4%
- TGI % Day 11 [2, 5]: 67.3%
- TGI % Day 15 [2, 5]: 85.8%
- TGI % Day 18 [2, 5]: 92.3%
- TGI % Day 22 [2, 5]: 95.8%
- TGI % Day 25 [2, 5]: 97.2%
- TGI % Day 29 [2, 5]: 97.8%
- TGI % Day 4 [2, 6]: 2.1%
- TGI % Day 8 [2, 6]: 34.2%
- TGI % Day 11 [2, 6]: 48%
- TGI % Day 15 [2, 6]: 62.4%
- TGI % Day 18 [2, 6]: 73.8%
- TGI % Day 22 [2, 6]: 79%
- TGI % Day 25 [2, 6]: 83.4%
- TGI % Day 29 [2, 6]: 78.5%
- TGI % Day 4 ([2]; 0.5 mg/kg 2x/wk, 8 total doses): 0.5%
- TGI % Day 8 ([2]; 0.5 mg/kg 2x/wk, 8 total doses): 61.6%
- TGI % Day 11 ([2]; 0.5 mg/kg 2x/wk, 8 total doses): 78.3%
- TGI % Day 15 ([2]; 0.5 mg/kg 2x/wk, 8 total doses): 91.8%
- TGI % Day 18 ([2]; 0.5 mg/kg 2x/wk, 8 total doses): 96.2%
- TGI % Day 22 ([2]; 0.5 mg/kg 2x/wk, 8 total doses): 97.6%
- TGI % Day 25 ([2]; 0.5 mg/kg 2x/wk, 8 total doses): 99.1%
- TGI % Day 29 ([2]; 0.5 mg/kg 2x/wk, 8 total doses): 99.2%
- TGI % Day 4 [2, 7]: 1.6%
- TGI % Day 8 [2, 7]: 60.3%
- TGI % Day 11 [2, 7]: 68.8%
- TGI % Day 15 [2, 7]: 82.7%
- TGI % Day 18 [2, 7]: 87.1%
- TGI % Day 22 [2, 7]: 91.1%
- TGI % Day 25 [2, 7]: 93.6%
- TGI % Day 29 [2, 7]: 89.5%
- TGI % Day 4 [2, 8]: 25.8%
- TGI % Day 8 [2, 8]: 69.9%
- TGI % Day 11 [2, 8]: 84.4%
- TGI % Day 15 [2, 8]: 93.6%
- TGI % Day 18 [2, 8]: 97.4%
- TGI % Day 22 [2, 8]: 99.2%
- TGI % Day 25 [2, 8]: 99.8%
- TGI % Day 29 [2, 8]: 99.7%
- tolerability of multiple doses ([2]; all regimens): well tolerated
- average body weight loss after the second dosing event (passage 3 IMR-32 tumors; 2.0 mg/kg once a week for two weeks): 8.0%
- mice showing complete regression (passage 3 IMR-32 tumors; both treatment groups, 2.0 mg/kg or […] once a week for two weeks): 10 out of 10
